According to patent US12077503B2, “Substituted cyclic amides and their use as herbicides” (FMC CORPORATION, priority 2015, dated 2024):

Legend:
Type in all cases: in vivo
Kochia (Kochia scoparia) [1] = assay: Test A preemergence; conditions: for Plant response rating, Kochia: 125 g ai/ha, preemergence, 0 to 100 scale (0 no effect, 100 complete control)
Method in brief: (§1)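 In a loam soil and sand blend, planted seeds got a preemergence directed soil spray, and young plants at the one- to two-leaf stage, 2–10 cm high, got a postemergence application; ~10 d greenhouse hold; injury rated visually, 0 = none, 100 = complete control.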

[2] = test system: barnyardgrass (Echinochloa crus-galli); assay: Test A preemergence; conditions: for Plant response rating, Barnyardgrass: 125 g ai/ha, preemergence, 0 to 100 scale (0 no effect, 100 complete control)
Method in brief: as §1

[3] = test system: giant foxtail (Setaria faberii); assay: Test A preemergence; conditions: for Plant response rating, Foxtail, Giant: 125 g ai/ha, preemergence, 0 to 100 scale (0 no effect, 100 complete control)
Method in brief: as §1

[4] = test system: pigweed (Amaranthus retroflexus); assay: Test A preemergence; conditions: for Plant response rating, Pigweed: 125 g ai/ha, preemergence, 0 to 100 scale (0 no effect, 100 complete control)
[5] = test system: ragweed (common ragweed, Ambrosia elatior); assay: Test A preemergence; conditions: for Plant response rating, Ragweed: 125 g ai/ha, preemergence, 0 to 100 scale (0 no effect, 100 complete control)
Method in brief: as §1

[6] = test system: ryegrass, Italian (Italian ryegrass, Lolium multiflorum); assay: Test A preemergence; conditions: for Plant response rating, Ryegrass, Italian: 125 g ai/ha, preemergence, 0 to 100 scale (0 no effect, 100 complete control)
Method in brief: as §1

[7] = test system: Galium (catchweed bedstraw, Galium aparine); assay: Test A postemergence; conditions: postemergence; for Galium plant response rating: 125 g ai/ha, visual injury rating on 0 to 100 scale (0 no effect, 100 complete control), approx. 10 d; for Plant response rating, Galium: 500 g ai/ha, 0 to 100 scale, 0 no effect, 100 complete control
Method in brief: as §1

Kochia (Kochia scoparia) [8] = assay: Test A postemergence; conditions: postemergence; for Kochia plant response rating: 125 g ai/ha, visual injury rating on 0 to 100 scale (0 no effect, 100 complete control), approx. 10 d; for Plant response rating, Kochia: 500 g ai/ha, 0 to 100 scale, 0 no effect, 100 complete control
Method in brief: as §1

[9] = test system: barnyardgrass (Echinochloa crus-galli); assay: Test A postemergence
Method in brief: as §1

[10] = test system: blackgrass (Alopecurus myosuroides); assay: Test A postemergence
Method in brief: as §1

corn (Zea mays) = assay: Test A postemergence; conditions: postemergence; for Corn plant response rating: 125 g ai/ha, visual injury rating on 0 to 100 scale (0 no effect, 100 complete control), approx. 10 d; for Plant response rating, Corn: 500 g ai/ha, 0 to 100 scale, 0 no effect, 100 complete control
Method in brief: as §1

[11] = test system: giant foxtail (Setaria faberii); assay: Test A postemergence; conditions: postemergence; for Foxtail, Giant plant response rating: 125 g ai/ha, visual injury rating on 0 to 100 scale (0 no effect, 100 complete control), approx. 10 d; for Plant response rating, Foxtail, Giant: 500 g ai/ha, 0 to 100 scale, 0 no effect, 100 complete control
Method in brief: as §1

[12] = test system: pigweed (Amaranthus retroflexus); assay: Test A postemergence; conditions: postemergence; for Pigweed plant response rating: 125 g ai/ha, visual injury rating on 0 to 100 scale (0 no effect, 100 complete control), approx. 10 d; for Plant response rating, Pigweed: 500 g ai/ha, 0 to 100 scale, 0 no effect, 100 complete control
Method in brief: as §1

[13] = test system: ragweed (common ragweed, Ambrosia elatior); assay: Test A postemergence; conditions: postemergence; for Ragweed plant response rating: 125 g ai/ha, visual injury rating on 0 to 100 scale (0 no effect, 100 complete control), approx. 10 d; for Plant response rating, Ragweed: 500 g ai/ha, 0 to 100 scale, 0 no effect, 100 complete control
Method in brief: as §1

[14] = test system: ryegrass, Italian (Italian ryegrass, Lolium multiflorum); assay: Test A postemergence; conditions: postemergence; for Ryegrass, Italian plant response rating: 125 g ai/ha, visual injury rating on 0 to 100 scale (0 no effect, 100 complete control), approx. 10 d; for Plant response rating, Ryegrass, Italian: 500 g ai/ha, 0 to 100 scale, 0 no effect, 100 complete control
Method in brief: as §1

[15] = test system: wheat (Triticum aestivum); assay: Test A postemergence; conditions: postemergence; for Wheat plant response rating: 125 g ai/ha, visual injury rating on 0 to 100 scale (0 no effect, 100 complete control), approx. 10 d; for Plant response rating, Wheat: 500 g ai/ha, 0 to 100 scale, 0 no effect, 100 complete control
Method in brief: as §1

[16] = test system: barnyardgrass (Echinochloa crus-galli); assay: Test B flooded paddy test; conditions: Flood, 250 g ai/ha; 0 to 100 scale where 0 is no effect and 100 is complete control; 13 to 15 d
Method in brief: (§2)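 Plants at 2-leaf stage flooded to 3 cm above soil, with compounds applied directly to paddy water and that depth maintained. Plants kept in greenhouse 13–15 d. Visual rating versus controls on a 0 (no effect) to 100 (complete control) scale.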

[17] = test system: ducksalad (Heteranthera limosa); assay: Test B flooded paddy test; conditions: Flood, 250 g ai/ha; 0 to 100 scale where 0 is no effect and 100 is complete control; 13 to 15 d
Method in brief: as §2

rice (Oryra sativa) = assay: Test B flooded paddy test; conditions: Flood, 250 g ai/ha; 0 to 100 scale where 0 is no effect and 100 is complete control; 13 to 15 d
Method in brief: as §2

[18] = test system: sedge, umbrella (small-flower umbrella sedge, Cyperus difformis); assay: Test B flooded paddy test; conditions: Flood, 250 g ai/ha; 0 to 100 scale where 0 is no effect and 100 is complete control; 13 to 15 d
Method in brief: as §2

[19] = test system: blackgrass (Alopecurus myosuroides); assay: Test C preemergence; conditions: scale 0 to 100, 0 no effect, 100 complete control
Source text: Seeds of plant species selected from blackgrass (Alopecurus myosuroides), ryegrass, Italian (Italian ryegrass, Lolium multiflorum), wheat (winter wheat, Triticum aestivum), Galium (catchweed bedstraw, Galium aparine), corn (Zea mays), crabgrass, large (large crabgrass, Digitaria sanguinalis), foxtail, giant (giant foxtail, Setaria faberii), johnsongrass (Sorghum halepense), lambsquarters (Chenopodium album), morningglory (Ipomoea coccinea), nutsedge, yellow (yellow nutsedge, Cyperus esculentus), pigweed (Amaranthus retroflexus), ragweed (common ragweed, Ambrosia elatior), soybean (Glycine max), barnyardgrass (Echinochloa crus-galli), oilseed rape (Brassica napus), waterhemp (common waterhemp, Amaranthus rudis) and velvetleaf (Abutilon theophrasti) were planted into a blend of loam soil and sand and treated preemergence with test chemicals formulated in a non-phytotoxic solvent mixture which included a surfactant.
At the same time, plants selected from these crop and weed species and also Kochia (Kochia scoparia), oat, wild (wild oat, Avena fatua), and chickweed (common chickweed, Stellaria media) were planted in pots containing Sunshine Redi-Earth® planting medium comprising spaghnum peat moss, vermiculite, starter nutrients and dolomitic limestone and treated with postemergence applications of test chemicals formulated in the same manner. Plants ranged in height from 2 to 18 cm (1- to 4-leaf stage) for postemergence treatments. Treated plants and controls were maintained in a greenhouse for 13 to 15 d, after which time all species were compared to controls and visually evaluated. Plant response ratings, summarized in Table C, are based on a scale of 0 to 100 where 0 is no effect and 100 is complete control. A dash (-) response means no test result.

[20] = Preemergence, 500 g ai/ha, 0 is no effect, 100 is complete control
[21] = 500 g ai/ha, postemergence, 0 to 100 scale, 0 no effect, 100 complete control
[22] = Postemergence, 125 g ai/ha, visual injury, 0 to 100 scale (0 no effect, 100 complete control), approx. 10 d
[23] = Preemergence, 500 g ai/ha, visual injury approx. 10 d
[24] = 125 g ai/ha, postemergence, visual injury rating on 0 to 100 scale (0 no effect, 100 complete control), approx. 10 d

SMILES | Plant response rating, Kochia (Kochia (Kochia scoparia) [1]) | Plant response rating, Barnyardgrass [2] | Plant response rating, Foxtail, Giant [3] | Plant response rating, Pigweed [4] | Plant response rating, Ragweed [5] | Plant response rating, Ryegrass, Italian [6] | Galium plant response rating [7] | Plant response rating, Galium [7] | Kochia plant response rating (Kochia (Kochia scoparia) [8]) | Plant response rating, Kochia (Kochia (Kochia scoparia) [8]) | Plant response rating, Barnyardgrass [9, 21] | Plant response rating, Blackgrass [10, 21] | Corn plant response rating (corn (Zea mays)) | Plant response rating, Corn (corn (Zea mays)) | Foxtail, Giant plant response rating [11] | Plant response rating, Foxtail, Giant [11] | Pigweed plant response rating [12] | Plant response rating, Pigweed [12] | Ragweed plant response rating [13] | Plant response rating, Ragweed [13] | further results
CN1CC(c2cccc(OC(F)(F)C(F)F)c2)C(C(=O)Nc2ccc(F)cc2F)C1=O (stereo not shown) [Compound 393] | 60 | 90 | 90 | 50 | 0 | 20 | 70 | 70 | 60 | 60 | 90 | 70 | 80 | 80 | 90 | 90 | 50 | 70 | 0 | 0 | Kochia plant response rating (0 to 100 scale) (Kochia (Kochia scoparia) [1]; [20]): 50; Barnyardgrass plant response rating (0 to 100 scale) [2, 20]: 90; Foxtail, Giant plant response rating (0 to 100 scale) [3, 20]: 90; Pigweed plant response rating (0 to 100 scale) [4, 20]: 70; Ragweed plant response rating (0 to 100 scale) [5, 20]: 70; Ryegrass, Italian plant response rating (0 to 100 scale) [6, 20]: 50; Plant response rating, Barnyardgrass [9, 22]: 80; Plant response rating, Blackgrass [10, 22]: 60; Ryegrass, Italian plant response rating [14]: 40; Plant response rating, Ryegrass, Italian [14]: 70; Wheat plant response rating [15]: 20; Plant response rating, Wheat [15]: 70; Plant response rating, Barnyardgrass [16]: 65; Plant response rating, Ducksalad [17]: 90; Plant response rating, Rice (rice (Oryra sativa)): 0; Plant response rating, Sedge, Umbrella [18]: 0; Plant response rating, Blackgrass ([19]; 31 g ai/ha): 10; Plant response rating, Blackgrass ([19]; 62 g ai/ha): 55; Plant response rating, Blackgrass ([19]; 125 g ai/ha): 70; Plant response rating, Blackgrass ([19]; 250 g ai/ha): 90
CN1CC(c2cccc(C(F)(F)F)c2)C(C)(C(=O)Nc2ccccc2F)C1=O (stereo not shown) [Compound 428] | 50 | 90 | 90 | 0 | 0 | 20 | 50 | 60 | 30 | 70 | 90 | 70 | 30 | 60 | 80 | 90 | 0 | 20 | 0 | 0 | Kochia plant response rating (0 to 100 scale, 0 is no effect, 100 is complete control) (Kochia (Kochia scoparia) [1]; [23]): 50; Barnyardgrass plant response rating (0 to 100 scale, 0 is no effect, 100 is complete control) [2, 23]: 90; Foxtail, Giant plant response rating (0 to 100 scale, 0 is no effect, 100 is complete control) [3, 23]: 90; Pigweed plant response rating (0 to 100 scale, 0 is no effect, 100 is complete control) [4, 23]: 20; Ragweed plant response rating (0 to 100 scale, 0 is no effect, 100 is complete control) [5, 23]: 0; Ryegrass, Italian plant response rating (0 to 100 scale, 0 is no effect, 100 is complete control) [6, 23]: 30; Barnyardgrass plant response rating [9, 24]: 90; Blackgrass plant response rating [10, 24]: 40; Ryegrass, Italian plant response rating [14]: 30; Plant response rating, Ryegrass, Italian [14]: 30; Wheat plant response rating [15]: 30; Plant response rating, Wheat [15]: 60; Plant response rating, Blackgrass ([19]; 31 g ai/ha): 0; Plant response rating, Blackgrass ([19]; 62 g ai/ha): 0; Plant response rating, Blackgrass ([19]; 125 g ai/ha): 30; Plant response rating, Blackgrass ([19]; 250 g ai/ha): 30
